Measurements taken from patent US20250215087A1, “COMBINATION THERAPY OF KRAS INHIBITOR AND TREG DEPLETING AGENT” (Bristol-Myers Squibb Company, priority 2023, published 2025).

Tests used:
KRAS-G12C mutant NSCLC = details: clinical trials; cited from earlier work
[1] = system: Lewis Lung (3LL) carcinoma model; assay: Imaging mass cytometry of Lewis Lung (3LL) carcinoma lungs after 7 days MRTX1257 or Vehicle; spatial community analysis; format: in vivo, C57BL/6 mice
Experimental: Two datasets of IMC data generated from an in vivo experiment in which the Lewis Lung (3LL) carcinoma model was treated with the KRAS-G12C inhibitor MRTX1257 for 7 days prior to harvesting of the lungs were published previously in van Maldegem et al. (2021), Nat. Commun. 12:5906 (dataset 1) and Mugarza et al. (2022), Sci. Adv. 8: eabm8780 (dataset 2).
Following 3 weeks, mice were treated with either 50 mg/kg MRTX1257 or Vehicle for 7 consecutive days. Mice were sacrificed on day 8 and lungs were harvested and frozen. Tumors of 3 mice from each treatment group for dataset 1 and 4 mice from each treatment group for dataset 2 were processed for imaging mass cytometry. Tissue slices were stained with a cocktail of antibodies conjugated to heavy metal isotopes and images were obtained using a Hyperion Imaging Mass Cytometer (Standard BioTools). Different antibody panels were used for the generation of datasets 1 and 2 (FIGS. 1A and 1B). In total, 6 images were acquired from both Vehicle and MRTX1257 groups for dataset 1, and the Vehicle group for dataset 2, and 5 images were acquired from the MRTX1257 group for dataset 2.
For further details on the in vivo study and IMC, including tissue processing, antibody staining, imaging acquisition and cell typing, reference is generally made to the Materials and Methods and Supplementary Materials provided by van Maldegem et al. (2021) and Mugarza et al. (2022), which are herewith incorporated by reference.
As described in van Maldegem et al. (2021), cellular neighbors were identified during segmentation using the CellProfiler module ‘Measure Object Neighbours’, following steps to identify individual cells. Neighbors were identified if a cell's boundary was within 15 μm (pixels) of the cell boundary of interest. Neighbor information was obtained for every cell object in each tissue.
Each ‘neighborhood’ was identified as a single cell and its local neighbors; defined by 15 μm object relationship output data from segmentation.
Expression values for each marker were normalized to the mean intensity of Xenon134. Following this, the data for each image across both treatment groups was concatenated, creating a size of 282,837 cells for dataset 1 and 626,070 cells for dataset 2. Each channel was then scaled to the 99th percentile. […] These clusters formed the basis to identify cell types present in the tissue, including tumor, lymphocytes, myeloid cells, fibroblasts, and endothelium. More details are available in van Maldegem et al., 2021 for dataset 1 and Mugarza et al., 2022 for dataset 2.
As described in van Maldegem et al., 2021, the neighbourhood method developed by Bodenmiller (https://github.com/BodenmillerGroup/neighbourhood; Schapiro et al., 2017, histoCAT: analysis of cell phenotypes and interactions in multiplex image cytometry data. Nat Methods 14, 873-876) was used to identify the enrichment of cell types within the 15-pixel neighborhood of each cell compared to random permutations of events, with a modification of only calculating enrichment in the CD8^+ T cell neighborhood, separated by community and using 1000 rounds of permutation. This was carried out for the community names T cell/normal adjacent community (T/NA), T cell/Type 1 macrophage community (T/M1), T cell/Dendritic cell community (T/DC), T cell/Type 2 macrophage community 1 (T/M2_1) and T cell/Type 2 macrophage community 2 (T/M2_2) communities for the MRTX1257 treatment setting.
Neighborhood enrichment analysis was also used for exploring cell pair relationships in the presence or absence of Tregs within the T/DC and T/M2_2 communities following MRTX treatment. Enrichment scores were only deemed statistically significant if the p-value when comparing real neighbors to randomized neighbors was ≤0.01.

[2] = system: Lewis Lung (3LL) carcinoma model; details: van Maldegem et al. 2021, cited from earlier work
[3] = system: orthotopic Lewis lung (3LL) NSCLC tumors; details: seven consecutive days of treatment; van Maldegem et al. 2021; cited from earlier work
CCR4 = molecular target: T1, CCR4 (Homo sapiens, UniProt P51679); details: Kurose et al. 2015; cited from earlier work
T1 construct: host or cells: Tregs, conventional CD4+ and CD8+ T cells (in vivo, cited study)
T1 sequence (P51679 1-360): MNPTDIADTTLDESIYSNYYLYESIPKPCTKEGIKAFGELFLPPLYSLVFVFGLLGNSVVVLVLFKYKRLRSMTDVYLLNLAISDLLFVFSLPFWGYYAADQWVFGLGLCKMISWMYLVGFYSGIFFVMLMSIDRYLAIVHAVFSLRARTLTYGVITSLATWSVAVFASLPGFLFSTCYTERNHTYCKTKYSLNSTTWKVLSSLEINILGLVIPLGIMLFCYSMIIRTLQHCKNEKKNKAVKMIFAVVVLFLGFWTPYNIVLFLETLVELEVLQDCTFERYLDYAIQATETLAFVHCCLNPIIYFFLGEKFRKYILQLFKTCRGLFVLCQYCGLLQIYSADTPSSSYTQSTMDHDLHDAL

advanced melanoma = details: Hodi et al. 2010; cited from earlier work

With `C=CC(=O)N1CCN(c2nc(=O)n(-c3c(C)ccnc3C(C)C)c3nc(-c4c(O)cccc4F)c(F)cc23)[C@@H](C)C1` [sotorasib] as the compound, how does the “patients achieving temporary disease control” value (KRAS-G12C mutant NSCLC) read?
Its value is 80%.

What does the source list for `C=CC(=O)N1CCN(c2nc(OC[C@@H]3CCCN3C)nc3c2CCN(c2cccc4cccc(C)c24)C3)C[C@@H]1CC#N` [MRTX1257]?
frequency of c-casp3+ tumor cells in the CD8+ T cell close neighborhood ([1]; T/DC community, 'No Tregs' neighborhoods, FIG. 25): increased; Ki67 expression on CD4+ and CD8+ T cells ([1]; T/DC community, dataset 2, FIG. 19A): significant increase; occurrences of a c-casp3+ tumor cell in the 15-pixel neighborhood of a CD8+ T cell ([1]; T/DC community, dataset 2, FIG. 19B): increased; images with CD4+ T cells and dendritic cells significantly enriched in the neighborhood of a CD8+ T cell ([1]; T/DC community, vs random permutation, FIG. 21A): at least five out of the six images; images with Treg cells significantly enriched in the neighborhood of CD8+ T cells ([1]; T/DC community, FIG. 21A): 3 out of the 6; mean expression of PD-1 on CD8+ T cells ([1]; T/DC, T/M2_1 and T/M2_2 communities, most pronounced in T/DC, FIGS. 16A-16B): an increase occurred; PD-L1 expression on dendritic cells (accompanied by high CD86) ([1]; T/DC, T/M2_1 and T/M2_2 communities, FIGS. 13A-13C): increased PD-L1 expression; interactions between tumor cells and neutrophils (communities 5, 13, 14, 15) ([1]; dataset 1, MRTX1257 vs Vehicle, FIG. 5): lost or dispersed; mean expression of CXCL9 on dendritic cells and macrophages ([1]; dataset 2, highest in T/DC community, FIG. 14): increased; mean expression of PD-1 on regulatory T cells ([1]; mainly in the T/DC community, FIG. 16D): higher PD-1 expression; count of regulatory T cells ([1]; most notably in T/DC and T/M2_2 communities, FIG. 22): increased in size; spatial distribution and neighborhood environment of CD8+ T cells ([1]; top 5 CD8+ T cell rich communities, MRTX1257 vs Vehicle, FIG. 11): shift in spatial distribution and neighborhood environment; percentage of PD-1+ CD8+ T cells that are positive for LAG-3 ([1]; tumor-associated communities following MRTX treatment, FIG. 17B): ~30%; immune phenotype of the tumor microenvironment ([2]; 50 mg/kg MRTX1257 for 7 days vs Vehicle): remodelled into a more inflammatory immune infiltrated TME; type 2 macrophage number and activation markers ([2]; previously described): increased in cell number and upregulated activation markers such as PD-L1 and MHC-II; tumor regression and growth [3]: tumors did not regress although tumor growth was inhibited

For “mogamulizumab: humanized, afucosylated monoclonal antibody targeting CC chemokine receptor 4 (CCR4)”, which “CD8+ T cell numbers” value (CCR4) is on record?
Its value is “modest reductions”.

What about the Treg depletion (CCR4) of the same compound?
Its Treg depletion is “achieved”.

And the “conventional CD4+ T cells” value (CCR4)?
The value was “significant depletion”.

Which overall survival (advanced melanoma) does the source give for “Ipilimumab: human anti-CTLA-4 antibody with IgG1 constant region, SEQ ID NO: 150 and 151” here?
Its overall survival is “improvement in overall survival”.
